Measured values reported in US5091399A, “Antimicrobial compounds and methods of use” (Rohm and Haas Company, priority 1990, dated 1992).
Values after ≈ are worked out from the molar mass of the structure shown.

Key:
Experiment in all cases: MIC test (biocide), serial dilution in Trypticase Soy Broth
Type in all cases: cell-based
Escherichia coli = conditions: pH 7.0, starting concentration 500 ppm
Experimental: (§1) Efficacy tests against eight fungi and four bacteria was carried out. A minimum inhibitory concentration (MIC) value was obtained using Trypticase Soy Broth, pH 7.0, and by preparing serial dilutions with a starting concentration of 500 ppm. A stock solution of the test compound was made in dimethyl sulfoxide (DMSO) or acetone. The MIC's of the compounds of this invention against the test organisms are shown in Table 3. |Test was run in Trypticase Soy Broth, pH 7.0 Starting concentration = 500

Pseudomonas fluorescens = conditions: pH 7.0, starting concentration 500 ppm
Experimental: as §1

Pseudomonas aeruginosa = conditions: pH 7.0, starting concentration 500 ppm
Experimental: as §1

Rhodotorula rubra = conditions: pH 7.0, starting concentration 500 ppm
Experimental: as §1

Staphylococcus aureus = conditions: pH 7.0, starting concentration 500 ppm
Experimental: as §1

Cladosporium resinae = conditions: Amorphotheca resinae, pH 7.0, starting concentration 500 ppm
Experimental: as §1

Saccharomyces cerevisiae = conditions: pH 7.0, starting concentration 500 ppm
Experimental: as §1

Aureobasidium pullulans = conditions: pH 7.0, starting concentration 500 ppm
Experimental: as §1

Gleophyllum trabeum = conditions: pH 7.0, starting concentration 500 ppm
Experimental: as §1

Chaetomium globosum = conditions: pH 7.0, starting concentration 500 ppm
Experimental: as §1

Penicillium funiculosum = conditions: Talaromyces funiculosus, pH 7.0, starting concentration 500 ppm
Experimental: as §1

Aspergillus niger = conditions: pH 7.0, starting concentration 500 ppm
Experimental: as §1

Chorella = conditions: pH 7.0, starting concentration 500 ppm
Experimental: as §1

Row | Structure (SMILES) | MIC (Escherichia coli) | MIC (Pseudomonas fluorescens) | MIC (Pseudomonas aeruginosa) | MIC (Rhodotorula rubra) | MIC (Staphylococcus aureus) | MIC (Cladosporium resinae) | MIC (Saccharomyces cerevisiae) | MIC (Aureobasidium pullulans) | MIC (Gleophyllum trabeum) | MIC (Chaetomium globosum) | MIC (Penicillium funiculosum) | MIC (Aspergillus niger) | MIC (Chorella)
1 | Cn1sc(Sc2nc3ccccc3s2)cc1=O [Compound 1, (2-methyl-4-isothiazolin-3-on-5-yl)-(benzothiazol-2'-yl)sulfide] | 500 µg/mL (≈ 1780 µM) | 8 µg/mL (≈ 28.5 µM) | > 500 µg/mL | 16 µg/mL (≈ 57.1 µM) | 4 µg/mL (≈ 14.3 µM) | 1 µg/mL (≈ 3.57 µM) | 8 µg/mL (≈ 28.5 µM) | 16 µg/mL (≈ 57.1 µM) | < 0.1 µg/mL | 32 µg/mL (≈ 114 µM) | 8 µg/mL (≈ 28.5 µM) | 8 µg/mL (≈ 28.5 µM) | –
2 | CCCCCCCCn1sc(Sc2nc3ccccc3s2)c(Cl)c1=O [Compound 2, [4-chloro-2-(n-octyl)-4-isothiazolin-3-on-5-yl]-(benzothiazol-2'-yl)sulfide] | > 250 µg/mL | – | > 250 µg/mL | – | 1 µg/mL (≈ 2.42 µM) | – | – | 32 µg/mL (≈ 77.5 µM) | – | – | – | 63 µg/mL (≈ 153 µM) | 4 µg/mL (≈ 9.68 µM)
3 | Cc1c(Sc2nc3ccccc3s2)sn(-c2ccc(Cl)cc2)c1=O [Compound 3, [4-methyl-2-(4-chlorophenyl)-4-isothiazolin-3-on-5-yl]-(benzothiazol-2'-yl)sulfide] | – | 0.4 µg/mL (≈ 1.02 µM) | 12.5 µg/mL (≈ 32 µM) | – | – | – | – | – | – | – | – | 12.5 µg/mL (≈ 32 µM) | –
